Reference: PubChem BioAssay AID1963979 (Molecular Pharmacology Branch, DTP, NCI, 2024)

System: 361931-004-R-J1-PDC multicell spheroid viability
Assay: Anticancer human tumor 361931-004-R-J1-PDC patient-derived colon adenocarcinoma cell line growth inhibition [PI3K]
Conditions: for IC50: curve of first compound; for viability, T/C: stronger effect = lower value; active means viability on the fitted dose curve at most 10% of control; inactive means the rest
Summary of the method: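 Three cell types, namely tumor cells, endothelial cells and mesenchymal stem cells, formed each spheroid. Combinations with four PI3K inhibitors were screened at clinically achievable concentrations decreasing by half-log, and spheroid viability was recorded.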

[1] = second compound 0.0316 µM, first compound 0.0316 µM
[2] = second compound 0.0316 µM, first compound 0.1 µM
[3] = second compound 0.0316 µM, first compound 0.316 µM
[4] = second compound 0.0316 µM, first compound 1 µM
[5] = second compound 0.0316 µM, first compound 3.16 µM
[6] = second compound 0.0316 µM, first compound 10 µM
[7] = second compound 0.1 µM, first compound 0.0316 µM
[8] = second compound 0.1 µM, first compound 0.1 µM
[9] = second compound 0.1 µM, first compound 0.316 µM
[10] = second compound 0.1 µM, first compound 1 µM
[11] = second compound 0.1 µM, first compound 3.16 µM
[12] = second compound 0.1 µM, first compound 10 µM
[13] = second compound 0.316 µM, first compound 0.0316 µM
[14] = second compound 0.316 µM, first compound 0.1 µM
[15] = second compound 0.316 µM, first compound 0.316 µM
[16] = second compound 0.316 µM, first compound 1 µM
[17] = second compound 0.316 µM, first compound 3.16 µM
[18] = second compound 0.316 µM, first compound 10 µM
[19] = second compound 1 µM, first compound 0.0316 µM
[20] = second compound 1 µM, first compound 0.1 µM
[21] = second compound 1 µM, first compound 0.316 µM
[22] = second compound 1 µM, first compound 1 µM
[23] = second compound 1 µM, first compound 3.16 µM
[24] = second compound 1 µM, first compound 10 µM
[25] = second compound 3.16 µM, first compound 0.0316 µM
[26] = second compound 3.16 µM, first compound 0.1 µM
[27] = second compound 3.16 µM, first compound 0.316 µM
[28] = second compound 3.16 µM, first compound 1 µM
[29] = second compound 3.16 µM, first compound 3.16 µM
[30] = second compound 3.16 µM, first compound 10 µM
[31] = second compound 10 µM, first compound 0.0316 µM
[32] = second compound 10 µM, first compound 0.1 µM
[33] = second compound 10 µM, first compound 0.316 µM
[34] = second compound 10 µM, first compound 1 µM
[35] = second compound 10 µM, first compound 3.16 µM
[36] = second compound 10 µM, first compound 10 µM
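Further: spheroids exposed to agents for seven days before readout.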

CC1(C)CCC(CN2CCN(c3ccc(C(=O)NS(=O)(=O)c4ccc(NCC5CCOCC5)c([N+](=O)[O-])c4)c(Oc4cnc5[nH]ccc5c4)c3)CC2)=C(c2ccc(Cl)cc2)C1 + Cc1nc(NC(=O)N2CCCC2C(N)=O)sc1-c1ccnc(C(C)(C)C(F)(F)F)c1
active: viability, T/C [6] 1.71% | viability, T/C [12] 1.27% | viability, T/C [18] 1.32% | viability, T/C [24] 0.97% | viability, T/C [30] 1.07% | viability, T/C [36] 1.43%
4.3 µM: IC50 (second compound 0.1 µM)
3.89 µM: IC50 (second compound 1 µM)
4.14 µM: IC50 (second compound 0.0316 µM)
2.71 µM: IC50 (second compound 3.16 µM)
4.19 µM: IC50 (second compound 0.316 µM)
1.52 µM: IC50 (second compound 10 µM)
inactive: viability, T/C [1] 108% | viability, T/C [2] 100% | viability, T/C [3] 111% | viability, T/C [4] 99.7% | viability, T/C [5] 64.9% | viability, T/C [7] 106% | viability, T/C [8] 100% | viability, T/C [9] 108% | viability, T/C [10] 99.1% | viability, T/C [11] 67.8% | viability, T/C [13] 104% | viability, T/C [14] 107% | viability, T/C [15] 96% | viability, T/C [16] 93% | viability, T/C [17] 65.6% | viability, T/C [19] 87.1% | viability, T/C [20] 102% | viability, T/C [21] 84.8% | viability, T/C [22] 83.1% | viability, T/C [23] 61.2% | viability, T/C [25] 85.7% | viability, T/C [26] 77% | viability, T/C [27] 78.2% | viability, T/C [28] 80% | viability, T/C [29] 45.4% | viability, T/C [31] 65.1% | viability, T/C [32] 67.7% | viability, T/C [33] 60.3% | viability, T/C [34] 62.2% | viability, T/C [35] 29%

CCCS(=O)(=O)Nc1ccc(F)c(C(=O)c2c[nH]c3ncc(-c4ccc(Cl)cc4)cc23)c1F + Cc1nc(NC(=O)N2CCCC2C(N)=O)sc1-c1ccnc(C(C)(C)C(F)(F)F)c1
4.92 µM: IC50 (second compound 0.0316 µM)
3.5 µM: IC50 (second compound 1 µM)
5.57 µM: IC50 (second compound 0.1 µM)
2.09 µM: IC50 (second compound 3.16 µM)
0.624 µM: IC50 (second compound 10 µM)
5.01 µM: IC50 (second compound 0.316 µM)
active: viability, T/C [6] 4.57% | viability, T/C [12] 4.97% | viability, T/C [18] 4.14% | viability, T/C [24] 3.96% | viability, T/C [30] 3.13% | viability, T/C [36] 1.96%
inactive: viability, T/C [1] 96.2% | viability, T/C [2] 101% | viability, T/C [3] 88.6% | viability, T/C [4] 99.7% | viability, T/C [5] 78.4% | viability, T/C [7] 107% | viability, T/C [8] 86.1% | viability, T/C [9] 87.2% | viability, T/C [10] 91.6% | viability, T/C [11] 95.5% | viability, T/C [13] 94.3% | viability, T/C [14] 92.1% | viability, T/C [15] 80.7% | viability, T/C [16] 86.9% | viability, T/C [17] 80.5% | viability, T/C [19] 89.2% | viability, T/C [20] 88.8% | viability, T/C [21] 75.9% | viability, T/C [22] 73.3% | viability, T/C [23] 57.3% | viability, T/C [25] 77.1% | viability, T/C [26] 75.2% | viability, T/C [27] 60.3% | viability, T/C [28] 59.1% | viability, T/C [29] 48.7% | viability, T/C [31] 70.6% | viability, T/C [32] 68.6% | viability, T/C [33] 54.2% | viability, T/C [34] 43.5% | viability, T/C [35] 30.7%

C[C@@H](NC(=O)c1ncnc(N)c1Cl)c1ncc(C(=O)Nc2cc(C(F)(F)F)c(Cl)cn2)s1 + Cc1nc(NC(=O)N2CCCC2C(N)=O)sc1-c1ccnc(C(C)(C)C(F)(F)F)c1
0.41 µM: IC50 (second compound 10 µM)
inactive: viability, T/C [1] 104% | viability, T/C [2] 106% | viability, T/C [3] 80.8% | viability, T/C [4] 97.3% | viability, T/C [5] 92.9% | viability, T/C [6] 85.5% | viability, T/C [7] 110% | viability, T/C [8] 104% | viability, T/C [9] 89.1% | viability, T/C [10] 106% | viability, T/C [11] 92.9% | viability, T/C [12] 80.5% | viability, T/C [13] 102% | viability, T/C [14] 100% | viability, T/C [15] 99.3% | viability, T/C [16] 89% | viability, T/C [17] 101% | viability, T/C [18] 78% | viability, T/C [19] 104% | viability, T/C [20] 95.8% | viability, T/C [21] 93.3% | viability, T/C [22] 88.8% | viability, T/C [23] 84.2% | viability, T/C [24] 60.9% | viability, T/C [25] 89.9% | viability, T/C [26] 84.8% | viability, T/C [27] 76.1% | viability, T/C [28] 70.4% | viability, T/C [29] 67.1% | viability, T/C [30] 31% | viability, T/C [31] 77.8% | viability, T/C [32] 59% | viability, T/C [33] 55.6% | viability, T/C [34] 41.7% | viability, T/C [35] 22%
4.93 µM: IC50 (second compound 3.16 µM)
active: viability, T/C [36] 3.55%
> 10 µM: IC50 (second compound 0.0316 µM) | IC50 (second compound 0.1 µM) | IC50 (second compound 0.316 µM) | IC50 (second compound 1 µM)
